Data from patent publication US11667645B2, “Granzyme B directed imaging and therapy” (CytoSite Biopharma Inc., priority 2018, dated 2023).

Biological target: Granzyme B (human lymphocytes) (Homo sapiens (Human), UniProt P10144)
Assay: human Granzyme B biochemical assay
Settings: Granzyme B (human lymphocytes) 5 nM, substrate Ac-IETD-AFC 200 μM, Cpd incubation with enzyme 30 mins, 22° C., read time 60 mins; read-out: IC50
Method in brief: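 Enzyme (10 nM working stock, assay buffer with 0.1% BSA) pre-incubated with compound for 30 min at 22 °C, then Ac-IETD-AFC (800 µM working stock) added for 60 min at 22 °C in the dark. Fluorescence read at Ex 400/Em 505 nm; 8-point 3.16-fold series (40 µM top working stock); IC50 from % inhibition versus standard-inhibitor and DMSO controls.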

Sequence of Granzyme B (human lymphocytes) (P10144 21-247): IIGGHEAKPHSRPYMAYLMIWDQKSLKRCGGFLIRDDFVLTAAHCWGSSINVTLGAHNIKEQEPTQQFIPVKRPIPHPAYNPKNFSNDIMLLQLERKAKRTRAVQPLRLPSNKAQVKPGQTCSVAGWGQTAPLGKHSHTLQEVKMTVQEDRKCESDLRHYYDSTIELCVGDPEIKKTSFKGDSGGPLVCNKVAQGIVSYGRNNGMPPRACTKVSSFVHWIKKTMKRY

Row | Compound | IC50 [nM]
1 | CC[C@H](C)[C@H](NC(=O)COCCF)C(=O)N[C@H]1CCc2cccc3c2N(C1=O)[C@H](C(=O)NCc1ccccc1Cl)C3 [Compound C130, (2S,5S)-5-{(2S,3S)-2-[2-(2-Fluoro-ethoxy)-acetylamino]-3-methyl-pentanoylamino}-4-oxo-1,2,4,5,6,7-hexahydro-azepino[3,2,1-hi]indole-2-carboxylic acid 2-chloro-benzylamide] | > 5000
2 | CC[C@H](C)[C@H](NC(=O)COCCF)C(=O)N[C@H]1CCc2cccc3c2N(C1=O)[C@H](C(=O)NCc1cccc(Cl)c1)C3 [Compound C131, (2S,5S)-5-{(2S,3S)-2-[2-(2-Fluoro-ethoxy)-acetylamino]-3-methyl-pentanoylamino}-4-oxo-1,2,4,5,6,7-hexahydro-azepino[3,2,1-hi]indole-2-carboxylic acid 3-chloro-benzylamide] | > 5000
3 | CC[C@H](C)[C@H](NC(=O)COCCF)C(=O)N[C@H]1CCc2cccc3c2N(C1=O)[C@H](C(=O)NCc1ccc(Cl)cc1)C3 [Compound C132, (2S,5S)-5-{(2S,3S)-2-[2-(2-Fluoro-ethoxy)-acetylamino]-3-methyl-pentanoylamino}-4-oxo-1,2,4,5,6,7-hexahydro-azepino[3,2,1-hi]indole-2-carboxylic acid 4-chloro-benzylamide] | > 5000
4 | CC[C@H](C)[C@H](NC(=O)COCCF)C(=O)N[C@H]1CCc2cccc3c2N(C1=O)[C@H](C(=O)NCc1cc(Cl)cc(Cl)c1)C3 [Compound C133, (2S,5S)-5-{(2S,3S)-2-[2-(2-Fluoro-ethoxy)-acetylamino]-3-methyl-pentanoylamino}-4-oxo-1,2,4,5,6,7-hexahydro-azepino[3,2,1-hi]indole-2-carboxylic acid 3,5-dichloro-benzylamide] | > 5000
5 | N[C@H]1CCc2cccc3c2N(C1=O)[C@H](C(=O)NCc1c[nH]nn1)C3 [Compound C147, (2S,5S)-5-Amino-4-oxo-1,2,4,5,6,7-hexahydro-azepino[3,2,1-hi]indole-2-carboxylic acid (1H-[1,2,3]triazol-4-ylmethyl)-amide] | > 5000
6 | CC(=O)N[C@H]1CCc2cccc3c2N(C1=O)[C@H](C(=O)NCc1c[nH]nn1)C3 [Compound C148, (2S,5S)-5-Acetylamino-4-oxo-1,2,4,5,6,7-hexahydro-azepino[3,2,1-hi]indole-2-carboxylic acid (1H-[1,2,3]triazol-4-ylmethyl)-amide] | > 5000
7 | CC[C@H](C)[C@H](NC(=O)COCCF)C(=O)N[C@H]1CCc2cccc3c2N(C1=O)[C@H](C(=O)NCc1ccn[nH]1)C3 [Compound C149, (2S,5S)-5-{(2S,3S)-2-[2-(2-Fluoro-ethoxy)-acetylamino]-3-methyl-pentanoylamino}-4-oxo-1,2,4,5,6,7-hexahydro-azepino[3,2,1-hi]indole-2-carboxylic acid (2H-pyrazol-3-ylmethyl)-amide] | > 5000
8 | CC[C@H](C)[C@H](NC(=O)COCCF)C(=O)N[C@H]1CCc2cccc3c2N(C1=O)[C@H](C(=O)NCc1ncn[nH]1)C3 [Compound C163, (2S,5S)-5-{(2S,3S)-2-[2-(2-Fluoro-ethoxy)-acetylamino]-3-methyl-pentanoylamino}-4-oxo-1,2,4,5,6,7-hexahydro-azepino[3,2,1-hi]indole-2-carboxylic acid (2H-[1,2,4]triazol-3-ylmethyl)-amide] | > 5000
9 | CC[C@H](C)[C@H](NC(=O)COCCF)C(=O)N[C@H]1CCc2cccc3c2N(C1=O)[C@H](C(=O)NCc1nc(O)n[nH]1)C3 [Compound C164, (2S,5S)-5-{(2S,3S)-2-[2-(2-Fluoro-ethoxy)-acetylamino]-3-methyl-pentanoylamino}-4-oxo-1,2,4,5,6,7-hexahydro-azepino[3,2,1-hi]indole-2-carboxylic acid (5-hydroxy-2H-[1,2,4]triazol-3-ylmethyl)-amide] | > 5000
10 | CC[C@H](C)[C@H](NC(=O)COCCF)C(=O)N[C@H]1CCc2cccc3c2N(C1=O)[C@H](C(=O)NCc1cc(O)n[nH]1)C3 [Compound C166, (2S,5S)-5-{(2S,3S)-2-[2-(2-Fluoro-ethoxy)-acetylamino]-3-methyl-pentanoylamino}-4-oxo-1,2,4,5,6,7-hexahydro-azepino[3,2,1-hi]indole-2-carboxylic acid (5-hydroxy-2H-pyrazol-3-ylmethyl)-amide] | 1000 to 5000

The next lines start with the values.

Row | IC50 [nM] | Compound
11 | 1 to 300 | CC[C@H](C)[C@H](NC(=O)COCCF)C(=O)N[C@H]1CNc2cccc3c2N(C1=O)[C@H](C(=O)NCc1c[nH]nn1)C3 [Compound C143, (3S,6S)-3-{(2S,3S)-2-[2-(2-Fluoro-ethoxy)-acetylamino]-3-methyl-pentanoylamino}-4-oxo-1,2,3,4,6,7-hexahydro-[1,4]diazepino[3,2,1-hi]indole-6-carboxylic acid (1H-[1,2,3]triazol-4-ylmethyl)-amide]
12 | 1 to 300 | CC[C@H](C)[C@H](NC(=O)COCCF)C(=O)N[C@H]1CN(C)c2cccc3c2N(C1=O)[C@H](C(=O)NCc1c[nH]nn1)C3 [Compound C144, (3S,6S)-3-{(2S,3S)-2-[2-(2-Fluoro-ethoxy)-acetylamino]-3-methyl-pentanoylamino}-1-methyl-4-oxo-1,2,3,4,6,7-hexahydro-[1,4]diazepino[3,2,1-hi]indole-6-carboxylic acid (1H-[1,2,3]triazol-4-ylmethyl)-amide]
13 | 1 to 300 | CC[C@H](C)[C@H](NC(=O)Cc1csc2ccccc12)C(=O)N[C@H]1COc2cccc3c2N(C1=O)[C@H](C(=O)NCc1c[nH]nn1)C3 [Compound C146, (1S,8S)-8-[(2S,3S)-2-(2-Benzo[b]thiophen-3-yl-acetylamino)-3-methyl-pentanoylamino]-9-oxo-1,2,8,9-tetrahydro-7H-6-oxa-9a-aza-benzo[cd]azulene-1-carboxylic acid (1H-[1,2,3]triazol-4-ylmethyl)-amide]
14 | 1 to 300 | CC[C@H](C)[C@H](NC(=O)Cc1cc2ccccc2s1)C(=O)N[C@H]1CCc2cccc3c2N(C1=O)[C@H](C(=O)NCc1c[nH]nn1)C3 [Compound C158, (2S,5S)-5-[(2S,3S)-2-(2-Benzo[b]thiophen-2-yl-acetylamino)-3-methyl-pentanoylamino]-4-oxo-1,2,4,5,6,7-hexahydro-azepino[3,2,1-hi]indole-2-carboxylic acid (1H-[1,2,3]triazol-4-ylmethyl)-amide]
15 | 1 to 300 | CC[C@H](C)[C@H](NC(=O)Cc1cc2ccccc2o1)C(=O)N[C@H]1CCc2cccc3c2N(C1=O)[C@H](C(=O)NCc1c[nH]nn1)C3 [Compound C159, (2S,5S)-5-[(2S,3S)-2-(2-Benzofuran-2-yl-acetylamino)-3-methyl-pentanoylamino]-4-oxo-1,2,4,5,6,7-hexahydro-azepino[3,2,1-hi]indole-2-carboxylic acid (1H-[1,2,3]triazol-4-ylmethyl)-amide]
16 | 1 to 300 | CC[C@H](C)[C@H](NC(=O)Cc1nc2ccccc2o1)C(=O)N[C@H]1CCc2cccc3c2N(C1=O)[C@H](C(=O)NCc1c[nH]nn1)C3 [Compound C160, (2S,5S)-5-[(2S,3S)-2-(2-Benzooxazol-2-yl-acetylamino)-3-methyl-pentanoylamino]-4-oxo-1,2,4,5,6,7-hexahydro-azepino[3,2,1-hi]indole-2-carboxylic acid (1H-[1,2,3]triazol-4-ylmethyl)-amide]
17 | 1 to 300 | CC[C@H](C)[C@H](NC(=O)Cc1cc2ccccc2[nH]1)C(=O)N[C@H]1CCc2cccc3c2N(C1=O)[C@H](C(=O)NCc1c[nH]nn1)C3 [Compound C161, (2S,5S)-5-[(2S,3S)-2-(2-1H-Indol-2-yl-acetylamino)-3-methyl-pentanoylamino]-4-oxo-1,2,4,5,6,7-hexahydro-azepino[3,2,1-hi]indole-2-carboxylicacid (1H-[1,2,3]triazol-4-ylmethyl)-amide]
18 | 1 to 300 | CC[C@H](C)[C@H](NC(=O)Cc1nc2ccccc2[nH]1)C(=O)N[C@H]1CCc2cccc3c2N(C1=O)[C@H](C(=O)NCc1c[nH]nn1)C3 [Compound C162, (2S,5S)-5-[(2S,3S)-2-(2-1H-Benzoimidazol-2-yl-acetylamino)-3-methyl-pentanoylamino]-4-oxo-1,2,4,5,6,7-hexahydro-azepino[3,2,1-hi]indole-2-carboxylic acid (1H-[1,2,3]triazol-4-ylmethyl)-amide]
19 | 301 to 1000 | CC[C@H](C)[C@H](NC(=O)COCCF)C(=O)N[C@H]1CCc2cccc3c2N(C1=O)[C@H](C(=O)NCB(O)O)C3 [Compound C170, {[((2S,5S)-5-{(2S,3S)-2-[2-(2-Fluoro-ethoxy)-acetylamino]-3-methyl-pentanoylamino}-4-oxo-1,2,4,5,6,7-hexahydro-azepino[3,2,1-hi]indole-2-carbonyl)-amino]-methyl}-boronic acid]
20 | 301 to 1000 | CC[C@H](C)[C@H](NC(=O)COCCF)C(=O)N[C@H]1CS(=O)(=O)c2cccc3c2N(C1=O)[C@H](C(=O)NCc1c[nH]nn1)C3 [Compound C172, (1S,8R)-8-{(2S,3S)-2-[2-(2-Fluoro-ethoxy)-acetylamino]-3-methyl-pentanoylamino}-6,6,9-trioxo-1,2,6,7,8,9-hexahydro-6lambda*6*- thia-9a-aza-benzo[cd]azulene-1-carboxylic acid (1H-[1,2,3]triazol-4-ylmethyl)-amide]
21 | 1 to 300 | CC[C@H](C)[C@H](NC(=O)CC1Cc2ccccc2O1)C(=O)N[C@H]1CCc2cccc3c2N(C1=O)[C@H](C(=O)NCc1c[nH]nn1)C3 (stereo partly drawn) [Compound C173, (2S,5S)-5-[(2S,3S)-2-(2-2,3-Dihydro-benzofuran-2-yl-acetylamino)-3-methyl-pentanoylamino]-4-oxo-1,2,4,5,6,7-hexahydro-azepino[3,2,1-hi]indole-2-carboxylic acid (1H-[1,2,3]triazol-4-ylmethyl)-amide]
